# Test results taken from ChEMBL document CHEMBL3045439, “Isoforms of the heteropteran Nezara viridula ecdysone receptor: protein characterisation, RH5992 insecticide binding and homology modelling” (Pest Manag Sci, 2011).
# Legend:
# Assay type in all cases: protein-complex assay
# Ecdysone receptor [1] = molecular target: Ecdysone receptor (Bemisia tabaci, UniProt A3EZJ4+A3EZJ5); assay: Binding affinity to Bemisia tabaci (sweet potato whitefly) ecdysone receptor (EcR)
# Ecdysone receptor [2] = molecular target: T1, Ecdysone receptor (Choristoneura fumiferana, UniProt O76202+O77240); assay: Binding affinity to Choristoneura fumiferana EcR
# T1 sequence (O77240 whole entry): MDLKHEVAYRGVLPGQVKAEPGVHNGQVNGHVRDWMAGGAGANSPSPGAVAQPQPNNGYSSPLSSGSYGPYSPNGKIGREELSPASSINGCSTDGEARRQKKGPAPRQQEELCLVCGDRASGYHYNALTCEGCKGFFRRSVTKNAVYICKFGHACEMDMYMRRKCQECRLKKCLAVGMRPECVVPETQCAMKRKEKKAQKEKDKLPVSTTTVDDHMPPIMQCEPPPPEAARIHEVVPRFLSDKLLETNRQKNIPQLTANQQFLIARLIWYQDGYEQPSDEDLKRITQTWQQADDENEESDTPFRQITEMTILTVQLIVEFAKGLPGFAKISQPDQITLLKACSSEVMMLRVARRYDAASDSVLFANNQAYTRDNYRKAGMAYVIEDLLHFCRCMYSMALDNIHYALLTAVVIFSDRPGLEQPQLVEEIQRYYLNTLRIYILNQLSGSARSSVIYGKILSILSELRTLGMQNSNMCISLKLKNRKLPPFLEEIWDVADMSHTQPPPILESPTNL
# T1 sequence (O76202 whole entry): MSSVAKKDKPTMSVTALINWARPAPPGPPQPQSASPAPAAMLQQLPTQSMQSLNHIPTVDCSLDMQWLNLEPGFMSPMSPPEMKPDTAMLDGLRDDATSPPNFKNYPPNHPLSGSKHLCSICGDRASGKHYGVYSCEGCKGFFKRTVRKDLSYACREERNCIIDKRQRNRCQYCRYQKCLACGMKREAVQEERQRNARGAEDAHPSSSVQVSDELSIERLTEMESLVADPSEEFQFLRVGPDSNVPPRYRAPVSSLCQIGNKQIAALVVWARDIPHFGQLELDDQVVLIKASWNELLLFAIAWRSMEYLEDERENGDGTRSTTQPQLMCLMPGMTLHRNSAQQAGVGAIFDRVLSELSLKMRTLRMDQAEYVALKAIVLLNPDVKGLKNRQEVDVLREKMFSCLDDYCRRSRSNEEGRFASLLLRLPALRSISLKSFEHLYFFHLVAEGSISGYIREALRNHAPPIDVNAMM
# Ecdysone receptor [3] = molecular target: T2, Ecdysone receptor (Chilo suppressalis, UniProt Q8I1M8+Q8MYA6); assay: Binding affinity to Chilo suppressalis (rice stem borer) EcR
# T2 sequence (Q8MYA6 whole entry): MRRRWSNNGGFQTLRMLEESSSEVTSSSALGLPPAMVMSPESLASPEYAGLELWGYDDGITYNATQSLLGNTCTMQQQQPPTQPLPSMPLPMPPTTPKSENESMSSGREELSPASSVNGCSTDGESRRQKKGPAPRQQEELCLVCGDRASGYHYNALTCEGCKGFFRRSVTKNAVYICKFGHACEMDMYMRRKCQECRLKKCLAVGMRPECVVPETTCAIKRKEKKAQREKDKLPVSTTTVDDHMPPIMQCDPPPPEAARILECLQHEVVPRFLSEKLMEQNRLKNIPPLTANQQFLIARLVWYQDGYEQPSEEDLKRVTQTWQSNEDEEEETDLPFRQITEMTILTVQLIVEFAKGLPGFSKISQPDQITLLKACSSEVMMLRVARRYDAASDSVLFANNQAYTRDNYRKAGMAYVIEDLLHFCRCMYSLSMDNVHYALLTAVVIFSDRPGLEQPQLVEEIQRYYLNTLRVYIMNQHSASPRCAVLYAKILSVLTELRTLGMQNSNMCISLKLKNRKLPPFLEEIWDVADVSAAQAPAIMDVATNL
# T2 sequence (Q8I1M8 whole entry): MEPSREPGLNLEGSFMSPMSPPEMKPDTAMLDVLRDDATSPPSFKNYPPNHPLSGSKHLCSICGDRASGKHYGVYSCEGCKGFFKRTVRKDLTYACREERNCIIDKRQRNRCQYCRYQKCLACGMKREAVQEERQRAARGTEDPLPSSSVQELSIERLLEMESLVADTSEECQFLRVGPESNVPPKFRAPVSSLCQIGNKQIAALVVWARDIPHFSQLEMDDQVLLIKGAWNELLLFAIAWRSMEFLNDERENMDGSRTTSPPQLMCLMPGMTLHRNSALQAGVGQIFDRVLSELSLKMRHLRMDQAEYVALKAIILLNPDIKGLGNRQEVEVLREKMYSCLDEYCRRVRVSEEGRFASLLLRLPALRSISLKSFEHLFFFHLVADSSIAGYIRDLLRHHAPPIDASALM
# Ecdysone receptor [4] = molecular target: T3, Ecdysone receptor (Heliothis virescens, UniProt O18473+Q7SIF6); assay: Binding affinity to Heliothis virescens (tobacco budworm) EcR
# T3 sequence (O18473 whole entry): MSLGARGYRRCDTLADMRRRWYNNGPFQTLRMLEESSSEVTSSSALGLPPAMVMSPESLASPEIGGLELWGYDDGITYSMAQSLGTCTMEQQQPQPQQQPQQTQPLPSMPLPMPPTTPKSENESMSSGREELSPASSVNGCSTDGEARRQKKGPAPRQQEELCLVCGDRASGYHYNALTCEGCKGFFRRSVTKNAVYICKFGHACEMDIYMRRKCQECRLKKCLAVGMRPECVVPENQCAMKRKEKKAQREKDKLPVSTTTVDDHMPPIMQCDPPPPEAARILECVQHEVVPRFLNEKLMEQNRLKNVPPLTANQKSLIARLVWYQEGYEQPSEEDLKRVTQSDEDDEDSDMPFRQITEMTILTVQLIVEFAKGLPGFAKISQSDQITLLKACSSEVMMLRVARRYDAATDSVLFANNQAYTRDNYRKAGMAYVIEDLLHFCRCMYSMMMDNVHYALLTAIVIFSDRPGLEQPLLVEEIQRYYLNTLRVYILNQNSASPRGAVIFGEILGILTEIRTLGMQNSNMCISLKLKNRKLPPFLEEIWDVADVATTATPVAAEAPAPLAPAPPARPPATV
# T3 sequence (Q7SIF6 whole entry): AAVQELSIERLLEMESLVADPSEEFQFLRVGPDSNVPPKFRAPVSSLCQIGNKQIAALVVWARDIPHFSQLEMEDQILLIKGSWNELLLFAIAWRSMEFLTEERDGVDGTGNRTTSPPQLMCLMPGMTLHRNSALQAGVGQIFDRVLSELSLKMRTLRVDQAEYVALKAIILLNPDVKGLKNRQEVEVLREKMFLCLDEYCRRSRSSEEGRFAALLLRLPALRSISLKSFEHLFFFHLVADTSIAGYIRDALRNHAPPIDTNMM
# Ecdysone receptor (Bemisia tabaci, UniProt A3EZJ4+A3EZJ5), sequence (A3EZJ4 1-297): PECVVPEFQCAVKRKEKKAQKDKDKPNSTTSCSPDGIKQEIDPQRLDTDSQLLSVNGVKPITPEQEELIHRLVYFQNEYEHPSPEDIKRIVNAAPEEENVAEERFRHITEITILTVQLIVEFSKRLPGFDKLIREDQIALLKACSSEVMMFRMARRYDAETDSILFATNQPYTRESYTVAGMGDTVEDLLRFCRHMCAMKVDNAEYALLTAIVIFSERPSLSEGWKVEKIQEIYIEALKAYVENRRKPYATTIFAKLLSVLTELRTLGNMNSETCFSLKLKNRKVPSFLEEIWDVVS
# Ecdysone receptor (Bemisia tabaci, UniProt A3EZJ4+A3EZJ5), sequence (A3EZJ5 1-251): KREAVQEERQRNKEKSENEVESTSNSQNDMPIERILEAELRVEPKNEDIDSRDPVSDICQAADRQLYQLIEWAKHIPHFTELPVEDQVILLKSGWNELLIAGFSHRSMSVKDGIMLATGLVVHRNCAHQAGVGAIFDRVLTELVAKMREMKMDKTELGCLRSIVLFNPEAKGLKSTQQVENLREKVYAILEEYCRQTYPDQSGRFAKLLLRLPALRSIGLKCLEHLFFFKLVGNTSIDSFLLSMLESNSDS
smiles,measurement,setting,value
CCc1ccc(C(=O)NN(C(=O)c2cc(C)cc(C)c2)C(C)(C)C)cc1 [TEBUFENOZIDE],Ki,Ecdysone receptor [1],> 501000 nM
same,Ki,Ecdysone receptor [2],0.501 nM
same,Ki,Ecdysone receptor [3],1.26 nM
same,Ki,Ecdysone receptor [4],3.16 nM
